Test results taken from patent publication US20100056502A1, “COMPOUNDS” (GLAXO GROUP LIMITED, priority 2007, published 2010).
Where a name gives a salt, the structure may show the parent alone.

Test system: Mycobacterium tuberculosis H37Rv
Experiment: Mycobacterium tuberculosis H37Rv Inhibition Assay
Format: cell-based
Settings: ATCC 25618 / H37Rv, H37Rv strain (ATCC25618), resazurin fluorescence readout
Protocol: The measurement of the minimum inhibitory concentration (MIC) for each tested compound was performed in 96 wells flat-bottom, polystyrene microtiter plates. Ten two-fold drug dilutions in neat DMSO starting at 400 μM were performed. Five μl of these drug solutions were added to 95 μl of Middlebrook 7H9 medium. (Lines A-H, rows 1-10 of the plate layout). Isoniazid was used as a positive control, 8 two-fold dilution of Isoniazid starting at 160 μgml^−1 was prepared and 5 μl of this control curve was added to 95 μl of Middlebrook 7H9 (Difco catalogue Ref. 271310)+ADC medium (Becton Dickinson Catalogue Ref. 211887). (Row 11, lines A-H). Five μl of neat DMSO were added to row 12 (growth and Blank controls).
The inoculum was standardised to approximately 1×10^7 cfu/ml and diluted 1 in 100 in Middlebrook 7H9+ADC medium and 0.025% Tween 80 (Sigma P4780), to produce the final inoculum of H37Rv strain (ATCC25618). One hundred μl of this inoculum was added to the entire plate but G-12 and H-12 wells (Blank controls). All plates were placed in a sealed box to prevent drying out of the peripheral wells and they were incubated at 37° C. without shaking for six days. A resazurin solution was prepared by dissolving one tablet of resazurin (Resazurin Tablets for Milk Testing; Ref 330884Y VWR International Ltd) in 30 ml sterile PBS (phosphate buffered saline). 25 μl of this solution was added to each well. Fluorescence was measured (Spectramax M5 Molecular Devices, Excitation 530 nm, Emission 590 nm) after 48 hours to determine the MIC value.

O=C1CSc2ccc(CNC3CCN(CC4CCn5c(=O)ccc6ccc(F)c4c65)CC3)nc2N1 (centres unmarked) [Example 10, 10-fluoro-1-[(4-{[(3-oxo-3,4-dihydro-2H-pyrido[3,2-b][1,4]thiazin-6-yl)methyl]amino}-1-piperidinyl)methyl]-2,3-dihydro-1H,5H-pyrido[3,2,1-ij]quinolin-5-one dihydrochloride] was tested, and the MIC was ≤ 1.8 µg/mL.

O=C1COc2ccc(CNC3CCN(CC4CCn5c(=O)ccc6ccc(F)c4c65)CC3)nc2N1 (centres unmarked) [Example 11, 10-fluoro-1-[(4-{[(3-oxo-3,4-dihydro-2H-pyrido[3,2-b][1,4]oxazin-6-yl)methyl]amino}-1-piperidinyl)methyl]-2,3-dihydro-1H,5H-pyrido[3,2,1-ij]quinolin-5-one dihydrochloride] was tested, and the MIC was ≤ 1.8 µg/mL.

In the case of O=C1COc2ccc(CN[C@H]3CCN(CC4CCn5c(=O)ccc6ccc(F)c4c65)C[C@H]3O)nc2N1 (stereo partly drawn) [Example 17, 10-fluoro-1-[((3R,4S)-3-hydroxy-4-{[(3-oxo-3,4-dihydro-2H-pyrido[3,2-b][1,4]oxazin-6-yl)methyl]amino}-1-piperidinyl)methyl]-2,3-dihydro-1H,5H-pyrido[3,2,1-ij]quinolin-5-one dihydrochloride], the MIC is reported as ≤ 1.8 µg/mL.

For O=C1COc2ccc(CNC3CCN(CC4CCn5c(=O)sc6ccc(F)c4c65)CC3)nc2N1 (centres unmarked) [Example 32, 7-Fluoro-6-[(4-{[(3-oxo-3,4-dihydro-2H-pyrido[3,2-b][1,4]oxazin-6-yl)methyl]amino}-1-piperidinyl)methyl]-5,6-dihydro-4H-[1,3]thiazolo[5,4,3-ij]quinolin-2-one dihydrochloride], the MIC was ≤ 1.8 µg/mL.

With O=C1COc2ccc(CNC3CCN(CC4CCN5C(=O)COc6ccc(F)c4c65)CC3)nc2N1 (centres unmarked) [Example 37, 8-Fluoro-7-[(4-{[(3-oxo-3,4-dihydro-2H-pyrido[3,2-b][1,4]oxazin-6-yl)methyl]amino}-1-piperidinyl)methyl]-6,7-dihydro-5H-[1,4]oxazino [2,3,4-ij]quinolin-3(2H)-one dihydrochloride] the MIC was ≤ 1.8 µg/mL.
